Molecules are shown by their SMILES.

For 17 compounds, Kinact/Kl results are on record in US20250230165A1, “HETEROCYCLIC COMPOUNDS FOR USE IN THE TREATMENT OF CANCER” (ARTIOS PHARMA LIMITED, priority 2021, published 2025).

In the experiment the target is T1, Human Polθ polymerase domain (aa1820-2590) (Homo sapiens, UniProt O75417).
T1 construct: Human Polθ polymerase domain (aa1820-2590) was expressed in E. coli; made in house; host or cells: E. coli
T1 sequence (O75417 1820-2590): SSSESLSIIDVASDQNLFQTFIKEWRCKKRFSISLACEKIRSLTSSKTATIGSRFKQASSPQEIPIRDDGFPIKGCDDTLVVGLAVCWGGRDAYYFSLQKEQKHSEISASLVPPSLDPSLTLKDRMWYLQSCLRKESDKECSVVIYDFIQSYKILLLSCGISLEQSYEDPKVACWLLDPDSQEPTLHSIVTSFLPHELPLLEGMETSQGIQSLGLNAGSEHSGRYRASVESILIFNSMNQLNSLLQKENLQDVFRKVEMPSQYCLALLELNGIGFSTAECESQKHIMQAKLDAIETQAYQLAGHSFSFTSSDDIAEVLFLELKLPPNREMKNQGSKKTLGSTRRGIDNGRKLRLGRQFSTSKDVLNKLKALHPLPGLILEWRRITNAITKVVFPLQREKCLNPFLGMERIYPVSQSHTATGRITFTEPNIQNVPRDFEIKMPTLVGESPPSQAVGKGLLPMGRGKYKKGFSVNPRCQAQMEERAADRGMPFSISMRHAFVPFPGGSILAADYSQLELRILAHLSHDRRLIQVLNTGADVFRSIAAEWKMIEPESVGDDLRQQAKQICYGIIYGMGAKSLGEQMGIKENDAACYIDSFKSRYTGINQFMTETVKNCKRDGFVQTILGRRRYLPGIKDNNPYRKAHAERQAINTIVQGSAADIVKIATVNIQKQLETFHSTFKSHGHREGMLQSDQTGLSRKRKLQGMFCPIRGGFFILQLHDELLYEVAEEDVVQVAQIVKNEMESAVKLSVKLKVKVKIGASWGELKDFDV
Kind of experiment: Polθ Polymerase Domain Kinact/KI Assay (PicoGreen). Format: biochemical. The note with it: 0.8 nM Polθ, 100 nM DNA substrate, kobs vs [I] fit for 2-step covalent inhibitor. The method, boiled down:
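Covalent inhibitors were tested against E. coli-expressed enzyme (0.8 nM final) with 100 nM annealed DNA substrate and […] in Tris pH 7.5 buffer, 1% DMSO. Reactions were EDTA-quenched over a 0–60 min time course and product DNA detected by PicoGreen fluorescence.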
The compound `C=CC(=O)N1CC(N2CCO[C@@H]3CN(CCN4C[C@H]5CC(=O)N(c6cc(C(F)(F)F)cc(C)n6)[C@@H]5C(=O)N(C)c5cccc(F)c54)C[C@H]32)C1` (single isomer, unassigned) [Example 22b] came in with a Kinact/Kl of 460000 M⁻¹ s⁻¹.

As for `C=CC(=O)N1Cc2nc(CN3C[C@H]4CC(=O)N(c5cc(C(F)(F)F)cc(C)n5)[C@@H]4C(=O)N(C)c4cccc(C)c43)cn2CC1C` (single isomer, unassigned) [Example 206a], the Kinact/Kl came to 4.36e+06 M⁻¹ s⁻¹.

For the compound `C=CC(=O)N1CC(c2noc(CN3C[C@H]4CC(=O)N(c5cc(C(F)(F)F)cc(C)n5)[C@@H]4C(=O)N(C)c4cccc(F)c43)n2)C1` [Example 102, (3aR,11aS)-5-((3-(1-acryloylazetidin-3-yl)-1,2,4-oxadiazol-5-yl)methyl)-6-fluoro-10-methyl-1-(6-methyl-4-(trifluoromethyl)pyridin-2-yl)-1,3a,4,5,10,11a-hexahydro-2H-benzo[b]pyrrolo[2,3-f][1,4]diazocine-2,11(3H)-dione], the Kinact/Kl was 1.16e+06 M⁻¹ s⁻¹.

In turn, `C=CC(=O)N1Cc2nc(CN3C[C@H]4CC(=O)N(c5cc(C(F)(F)F)cc(C)n5)[C@@H]4C(=O)Nc4cccc(Cl)c43)cn2CC1C` (single isomer, unassigned) [Example 144a] returned a Kinact/Kl of 1.06e+06 M⁻¹ s⁻¹.

With `C=CC(=O)Nc1ccc(CN2C[C@H]3CC(=O)N(c4cc(C(F)(F)F)cc(C)n4)[C@@H]3C(=O)N(C)c3cccc(C)c32)cc1OC` [Example 90, N-(4-(((3aR,11aS)-6,10-dimethyl-1-(6-methyl-4-(trifluoromethyl)pyridin-2-yl)-2,11-dioxo-1,2,3,3a,4,10,11,11a-octahydro-5H-benzo[b]pyrrolo[2,3-f][1,4]diazocin-5-yl)methyl)-2-methoxyphenyl)acrylamide], the Kinact/Kl is 2.09e+06 M⁻¹ s⁻¹.

`C=CC(=O)N1CC(N2CC[C@H](CN3C[C@H]4CC(=O)N(c5cc(C(F)(F)F)cc(C)n5)[C@@H]4C(=O)N(C)c4cccc(C)c43)C2)C1` [Example 223, (3aR,11aS)-5-(((S)-1-(1-acryloylazetidin-3-yl)pyrrolidin-3-yl)methyl)-6,10-dimethyl-1-(6-methyl-4-(trifluoromethyl)pyridin-2-yl)-1,3a,4,5,10,11a-hexahydro-2H-benzo[b]pyrrolo [2,3-f][1,4] diazocine-2,11(3H)-dione] gave a Kinact/Kl of 1.62e+06 M⁻¹ s⁻¹.

Consider `C=CC(=O)N1Cc2cc(CN3C[C@H]4CC(=O)N(c5cc(C(F)(F)F)cc(C)n5)[C@@H]4C(=O)N(C)c4cccc(C)c43)cnc2[C@H]1COC` (racemic) [Example 234, (3aR,11aS)-5-(((S/R)-6-acryloyl-7-(methoxymethyl)-6,7-dihydro-5H-pyrrolo[3,4-b]pyridin-3-yl)methyl)-6,10-dimethyl-1-(6-methyl-4-(trifluoromethyl)pyridin-2-yl)-1,3a,4,5,10,11a-hexahydro-2H-benzo[b]pyrrolo[2,3-f][1,4]diazocine-2,11(3H)-dione], for which the Kinact/Kl was found to be 5.85e+06 M⁻¹ s⁻¹.

For the compound `C=CC(=O)N1CCC(n2cnc(CN3C[C@H]4CC(=O)N(c5cc(C(F)(F)F)cc(C)n5)[C@@H]4C(=O)N(C)c4cccc(Cl)c43)n2)CC1` [Example 135, (3aR,11aS)-5-((1-(1-acryloylpiperidin-4-yl)-1H-1,2,4-triazol-3-yl)methyl)-6-chloro-10-methyl-1-(6-methyl-4-(trifluoromethyl)pyridin-2-yl)-1,3a,4,5,10,11a-hexahydro-2H-benzo[b]pyrrolo[2,3-f][1,4]diazocine-2,11(3H)-dione], the Kinact/Kl worked out at 2e+06 M⁻¹ s⁻¹.

`C=C(CN(C)C)C(=O)N1CC(CCCCN2C[C@H]3CC(=O)N(c4cc(C(F)(F)F)cc(C)n4)[C@@H]3C(=O)N(C)c3cccc(C)c32)C1` [Example 183, (3aR,11aS)-5-(4-(1-(2-((dimethyl-amino)methyl)-acryloyl)azetidin-3-yl)butyl)-6,10-dimethyl-1-(6-methyl-4-(trifluoro-methyl)pyridin-2-yl)-1,3a,4,5,10,11a-hexahydro-2H-benzo[b]pyrrolo [2,3-f][1,4]diazo-cine-2,11(3H)-dione]: the Kinact/Kl was determined as 3.8e+06 M⁻¹ s⁻¹.

As to `C=CC(=O)N1Cc2cc(CN3C[C@H]4CC(=O)N(c5cc(C(F)(F)F)cc(C)n5)[C@@H]4C(=O)N(C)c4cccc(C)c43)cnc2C1COC` (single isomer, unassigned) [Example 235], the Kinact/Kl was found to be 270000 M⁻¹ s⁻¹.

For the compound `C=CC(=O)N1CCN(c2cccc(N3C[C@H]4CC(=O)N(c5cc(C(F)(F)F)cc(C)n5)[C@@H]4C(=O)N(C)c4cccc(Cl)c43)n2)CC1` [Example 56, (3aR,11aS)-5-(6-(4-acryloylpiperazin-1-yl)pyridin-2-yl)-6-chloro-10-methyl-1-(6-methyl-4-(trifluoromethyl)pyridin-2-yl)-1,3a,4,5,10,11a-hexahydro-2H-benzo[b]pyrrolo[2,3-f][1,4]diazocine-2,11(3H)-dione], the Kinact/Kl turned out to be 36000 M⁻¹ s⁻¹.

In turn, `C=CC(=O)N1CCN2CCN(CCN3C[C@H]4CC(=O)N(c5cc(C(F)(F)F)cc(C)n5)[C@@H]4C(=O)N(C)c4cccc(F)c43)C(=O)[C@H]2C1` [Example 46, (3aR,11aS)-5-(2-((R)-8-acryloyl-1-oxooctahydro-2H-pyrazino[1,2-a]pyrazin-2-yl)ethyl)-6-fluoro-10-methyl-1-(6-methyl-4-(trifluoromethyl)pyridin-2-yl)-1,3a,4,5,10,11a-hexahydro-2H-benzo [b]pyrrolo[2,3-f][1,4] diazocine-2,11(3H)-dione] returned a Kinact/Kl of 480000 M⁻¹ s⁻¹.

The compound `C=C(CN(C)C)C(=O)N1CC(OCCCN2C[C@H]3CC(=O)N(c4cc(C(F)(F)F)cc(C)n4)[C@@H]3C(=O)N(C)c3cccc(Cl)c32)C1` [Example 156, (3aR,11aS)-6-chloro-5-(3-((1-(2-((dimethylamino)methyl)acryloyl)azetidin-3-yl)oxy)propyl)-10-methyl-1-(6-methyl-4-(trifluoromethyl)pyridin-2-yl)-1,3a,4,5,10,11a-hexahydro-2H-benzo[b]pyrrolo[2,3- ][1,4]diazocine-2,11(3H)-dione] returned a Kinact/Kl of 3.95e+06 M⁻¹ s⁻¹.

`C=CC(=O)N1Cc2nc(CN3C[C@H]4CC(=O)N(c5cc(C(F)(F)F)cc(C)n5)[C@@H]4C(=O)N(C)c4cccc(Cl)c43)cn2CC1C(F)F` (mixture of isomers) [Example 243a, (3aR,11aS)-5-(((S/R)-7-acryloyl-6-(difluoromethyl)-5,6,7,8-tetrahydroimidazo[1,2-a]pyrazin-2-yl)methyl)-6-chloro-10-methyl-1-(6-methyl-4-(trifluoromethyl)pyridin-2-yl)-1,3a,4,5,10,11a-hexahydro-2H-benzo[b]pyrrolo[2,3-f][1,4]diazocine-2,11(3H)-dione]: the Kinact/Kl was 1.03e+06 M⁻¹ s⁻¹.

As to `Cc1cc(C(F)(F)F)cc(N2C(=O)C[C@@H]3CN(CC45CC(CNC(=O)/C=C/CN(C)C)(C4)C5)c4c(C)cccc4N(C)C(=O)[C@H]32)n1` [Example 179, (E)-N-((3-(((3aR, 11aS)-6,10-dimeth-yl-1-(6-methyl-4-(trifluoromethyl)-pyridin-2-yl)-2,11-dioxo-1,2,3,3a,4, 10,11,11a-octa-hydro-5H-benzo [b]pyrrolo[2,3-f] [1,4]diazocin-5-yl)methyl)bicyclo [1.1.1]pentan-1-yl)methyl)-4-(dimethylamino)-but-2-enamide], the Kinact/Kl was found to be 670000 M⁻¹ s⁻¹.

`Cc1cc(C(F)(F)F)cc(N2C(=O)C[C@@H]3CN(Cc4ccc([C@H]5CCCN5C(=O)/C=C/CN(C)C)cc4)c4c(F)cccc4N(C)C(=O)[C@H]32)n1` (racemic) [Example 170a, (3aR,11aS)-5-(4-((R/S)-1-((E)-4-(dimethylamino)-but-2-enoyl)pyr-rolidin-2-yl)benz-yl)-6-fluoro-10-methyl-1-(6-methyl-4-(tri-fluoromethyl)-pyridin-2-yl)-1,3a,4,5,10,11a-hexahydro-2H-benzo[b]pyrrolo [2,3-f][1,4]diazo-cine-2,11(3H)-dione] registered a Kinact/Kl of 880000 M⁻¹ s⁻¹.

For the compound `C=CC(=O)N1Cc2cc(CN3C[C@H]4CC(=O)N(c5cc(C(F)(F)F)cc(C)n5)[C@@H]4C(=O)N(C)c4cccc(Cl)c43)ccc2[C@@H]1CC#N` (racemic) [Example 287a, 2-((S/R)-2-acryloyl-5-(((3aR,11aS)-6-chloro-10-methyl-1-(6-methyl-4-(trifluoromethyl)pyridin-2-yl)-2,11-dioxo-1,2,3,3a,4,10,11,11a-octahydro-5H-benzo[b]pyrrolo[2,3-f][1,4]diazocin-5-yl)methyl)isoindolin-1-yl)acetonitrile], the Kinact/Kl was 930000 M⁻¹ s⁻¹.
